Patent publication US20060106032A1, “Synthesis of N2 - (substituted arylmethyl) -3- (substituted phenyl) indazoles as novel anti-angiogenic agents” (YUNG SHIN PHARM. IND. CO., LTD., priority 2004, published 2006)
Values belong to the compound of their own block, whether it stands above or below them.

Columns and labels:
[1] = test system: Human umbilical vein endothelial cells (HUVECs); experiment: [3H]thymidine incorporation assay: VEGF-induced cell proliferation (DNA synthesis) of HUVECs; assay type: cell-based; conditions: VEGF 10 ng/mL; for activity on VEGF-induced cell proliferation of HUVECs compared with positive control YD-3: 1 μM
Description: (§1) Human umbilical vein endothelial cells were incubated in the absence (basal and control) or presence of tested sample (YD-3, 10, 15, 17, 21, 25, 26) with 30 μM, and then vascular endothelial growth factor (VEGF) was added (except for basal) to induce DNA synthesis, which was detected using [^3H] thymidine incorporation assay.
as §1, with “10” for “30”, “inducd” for “induce”, “assay. Means±S.E. (n=5) were presented.” for “assay.”
as §1, with “1” for “30”, “inducd” for “induce”, “assay. Means±S.E. (n=5) were presented.” for “assay.”
(§2) Human umbilical vein endothelial cells (HUVECS) were isolated according to the protocols from Jaffe et al. and obtained from human umbilical cord veins with collagenase and cultured in 75 cm^2 plastic flasks in M199 containing 20% FBS, 15 μg/mL endothelial cell growth supplements (ECGs). Confirmation of their identity as endothelial cells was provided by detection of CD31 (PECAM-1), assessed by immunostaining. Experiments were conducted on HUVECs that had used in passage 2 to 5.
Confluent HUVECs were trypsinized, suspended in DMEM supplemented with 20% FBS, and seeded at 1.0×10^4 cells per well into 96-well plates. After 24 h, the cells were washed twice with PBS and starved with 2% FBS-M199 medium for 24 h. The cells were incubated with or without indicated reagents and growth factors (VEGF; 10 ng/mL) for 24 h and harvested. Before the harvest, cells were incubated with [^3H]thymidine (2 μCi/mL) for 4 h, harvested with Filter-Mate (Packard), and incorporated radioactivity was determined.
The effect of tested compounds on VEGF-induced cell proliferation of HUVECs was assessed with the [^3H]thymidine incorporation assay, and the results were illustrated in FIG. 5-FIG. 7.

[2] = test system: VEGF-induced angiogenesis in Matrigel plug; experiment: In vivo Matrigel plug assay (neovascular formation, hemoglobin concentration); conditions: nude mice, FIG. 9; for anti-angiogenic activity in Matrigel plug assay (hemoglobin concentration): 150 ng/ml VEGF plug, oral, seven-day administration
Description: Nude mice were subcutaneously injected with a Matrigel plug containing 150 ng/ml vascular endothelial growth factor (VEGF). Vehicle or tested sample (YD-3, 10, 15, 17, 21, 25, 26) was orally administered into the mice. After a seven-day administration, the animals were euthanized and the plugs were cut of the mice for the measurement of angiogenic effect using the hemoglobin concentration as the parameter by means of a hemoglobin detection kit (Sigma). Means±S.E. (n=3) were presented. Nude mice (6 weeks of age) were given s.c. injections of 500 μL of Matrigel (Becton Dickinson, Bedford, Mass.) at 4° C. with or without YC-1 and growth factor (150 ng/mL VEGF). After injection, the Matrigel rapidly formed a plug. After 7 days, the skin of the mouse was easily pulled back to expose the Matrigel plug, which remained intact. After quantitative differences were noted and photographed, hemoglobin was measured, as an indication of blood vessel formation, using the Drabkin method (Drabkin reagent kit 525, Sigma, St. Louis, Mo.). The concentration of hemoglobin was calculated from a known amount of hemoglobin assayed in parallel. The in vivo Matrigel plug assay was used in this study to determine quantitative the anti-angiogenic effect of tested compounds.

angiogenesis = experiment: Evaluation for anti-angiogenic activities (overall summary); conditions: summary statement
Description: 3-(4-Methylphenyl)-1H-indazole (10) and N^2-(substituted benzyl)-3-(4-methylphenyl)indazoles (15, 17, 21, 25, 26) were evaluated for anti-angiogenic activities.
In this study, 3-(4-methylphenyl)-1H-indazole (10) and five of the above mentioned N^2-regioisomers, namely, compounds 15, 17, 21, 25 and 26 were selected for evaluating their effects on VEGF-induced cell proliferation, on VEGF-induced tube formation of HUVECs in vitro, and on neovascular formation in vivo.

[3] = test system: Human umbilical vein endothelial cells (HUVECs); experiment: VEGF-induced tube formation of HUVECs on Matrigel; assay type: cell-based; conditions: FIG. 8; for blockage of VEGF-induced tube formation of HUVECs: Matrigel-coated chamberslide
Description: FIG. 8 show photographs of the results of in vitro assay (inhibition of tube formation). Human umbilical vein endothelial cells were cultured onto chamberslide, which was precoated with Matrigel (10 mg/ml). Cells were treated without (basal and control) or with tested sample (YD-3, 10, 15, 17, 21, 25, 26) and then vascular endothelial growth factor (VEGF) was added to induce tube formation. All photographs were taken at 100×magnification.
as §2

Compound: Cc1ccc(-c2n[nH]c3ccccc23)cc1 [Compound 10, 3-(4-Methylphenyl)-1H-indazole]
- melting point: 106 to 107 °C
- inhibitory effect on VEGF-induced cell proliferation of HUVECs ([3H]thymidine incorporation) ([1]; 10 μM, FIG. 6): significant inhibitory effect
- inhibitory effect on VEGF-induced cell proliferation of HUVECs ([3H]thymidine incorporation) ([1]; 30 μM, FIG. 5): significant inhibitory effect

Compound: CCOC(=O)c1ccc(-c2n[nH]c3ccccc23)cc1 [Compound 11, Ethyl 4-(1H-indazol-3-yl)benzoate]
- melting point: 133 to 135 °C

Compound: Cc1ccc(-c2nn(Cc3ccc(Cl)cc3)c3ccccc23)cc1 [Compound 14, 1-(4-Chlorobenzyl)-3-(4-methylphenyl)-1H-indazole]
- melting point: 79.9 to 82.3 °C

Compound: Cc1ccc(-c2nn(Cc3cccc(Cl)c3)c3ccccc23)cc1 [Compound 16, 1-(3-Chlorobenzyl)-3-(4-methylphenyl)-1H-indazole]
- melting point: 66.6 to 68 °C

Compound: Cc1ccc(-c2nn(Cc3ccccc3Cl)c3ccccc23)cc1 [Compound 18, 1-(2-Chlorobenzyl)-3-(4-methylphenyl)-1H-indazole]
- melting point: 77.6 to 78.8 °C

Compound: Cc1ccc(-c2c3ccccc3nn2Cc2ccccc2Cl)cc1 [Compound 19, 2-(2-Chlorobenzyl)-3-(4-methylphenyl)-2H-indazole]
- melting point: 131.3 to 137.8 °C

Compound: Cc1ccc(Cn2nc(-c3ccc(C)cc3)c3ccccc32)cc1 [Compound 20, 1-(4-Methylbenzyl)-3-(4-methylphenyl)-1H-indazole]
- melting point: 79.6 to 82.3 °C

Compound: Cc1ccc(-c2nn(Cc3ccccc3C)c3ccccc23)cc1 [Compound 22, 1-(2-Methylbenzyl)-3-(4-methylphenyl)-1H-indazole]
- melting point: 114.1 to 116.5 °C

Compound: Cc1ccc(-c2c3ccccc3nn2Cc2ccccc2C)cc1 [Compound 23, 2-(2-Methylbenzyl)-3-(4-methylphenyl)-2H-indazole]
- melting point: 125 to 128.8 °C

Compound: CCOC(=O)c1ccc(-c2nn(Cc3ccccc3F)c3ccccc23)cc1 [Compound 31, Ethyl 4-[1-(2-fluorobenzyl)-1H-indazol-3-yl]benzoate]
- melting point: 102 to 103 °C

Compound: COC(=O)c1ccc(-c2nn(Cc3ccco3)c3ccccc23)cc1 [Compound 33, Methyl 4-[1-(2-furylmethyl)-1H-indazol-3-yl]benzoate]
- melting point: 99 to 101 °C

Compound: COC(=O)c1ccc(-c2c3ccccc3nn2Cc2ccco2)cc1 [Compound 34, Methyl 4-[2-(2-furylmethyl)-2H-indazol-3-yl]benzoate]
- melting point: 140 to 143 °C

Compound: OCc1ccc(-c2c3ccccc3nn2Cc2ccco2)cc1 [Compound 40, {4-[2-(2-Furylmethyl)-2H-indazol-3-yl]phenyl]methanol]
- melting point: 129 to 130 °C

More lines, main results first:

- melting point: 107.4 to 109.5 °C
Compound: Cc1ccc(-c2c3ccccc3nn2Cc2ccc(Cl)cc2)cc1 [Compound 15, 2-(4-Chlorobenzyl)-3-(4-methylphenyl)-2H-indazole]
- anti-angiogenic activity in Matrigel plug assay (hemoglobin concentration) [2]: significant anti-angiogenic activities
- anti-angiogenic potency in Matrigel plug assay compared with positive control YD-3 [2]: superior potency than the positive control YD-3
- anti-angiogenic activity (overall) (angiogenesis): significant anti-angiogenic activity
- inhibitory activity on tube formation compared with other tested compounds and YD-3 [3]: more potent than other tested compounds and YD-3
- blockage of VEGF-induced tube formation of HUVECs [3]: significant blockage
- activity on VEGF-induced cell proliferation of HUVECs compared with positive control YD-3 [1]: better activity than positive control YD-3
- inhibitory effect on VEGF-induced cell proliferation of HUVECs ([3H]thymidine incorporation) ([1]; 10 μM, FIG. 6): significant inhibitory effect
- inhibitory effect on VEGF-induced cell proliferation of HUVECs ([3H]thymidine incorporation) ([1]; 30 μM, FIG. 5): significant inhibitory effect

- melting point: 98 to 100 °C
Compound: Cc1ccc(-c2c3ccccc3nn2Cc2cccc(Cl)c2)cc1 [Compound 17, 2-(3-Chlorobenzyl)-3-(4-methylphenyl)-2H-indazole]
- anti-angiogenic activity in Matrigel plug assay (hemoglobin concentration) [2]: significant anti-angiogenic activities
- blockage of VEGF-induced tube formation of HUVECs [3]: significant blockage
- inhibitory effect on VEGF-induced cell proliferation of HUVECs ([3H]thymidine incorporation) ([1]; 10 μM, FIG. 6): significant inhibitory effect
- inhibitory effect on VEGF-induced cell proliferation of HUVECs ([3H]thymidine incorporation) ([1]; 30 μM, FIG. 5): significant inhibitory effect

- melting point: 107.5 to 109.3 °C
Compound: Cc1ccc(Cn2nc3ccccc3c2-c2ccc(C)cc2)cc1 [Compound 21, 2-(4-Methylbenzyl)-3-(4-methylphenyl)-2H-indazole]
- anti-angiogenic activity in Matrigel plug assay (hemoglobin concentration) [2]: significant anti-angiogenic activities
- anti-angiogenic potency in Matrigel plug assay compared with positive control YD-3 [2]: superior potency than the positive control YD-3
- anti-angiogenic activity (overall) (angiogenesis): significant anti-angiogenic activity
- inhibitory activity on tube formation compared with other tested compounds and YD-3 [3]: more potent than other tested compounds and YD-3
- blockage of VEGF-induced tube formation of HUVECs [3]: significant blockage
- activity on VEGF-induced cell proliferation of HUVECs compared with positive control YD-3 [1]: better activity than positive control YD-3
- inhibitory effect on VEGF-induced cell proliferation of HUVECs ([3H]thymidine incorporation) ([1]; 10 μM, FIG. 6): significant inhibitory effect
- inhibitory effect on VEGF-induced cell proliferation of HUVECs ([3H]thymidine incorporation) ([1]; 30 μM, FIG. 5): significant inhibitory effect

- melting point: 110.7 to 111.3 °C
Compound: Cc1ccc(-c2c3ccccc3nn2Cc2ccccc2)cc1 [Compound 26, 2-Benzyl-3-(4-methylphenyl)-2H-indazole]
- anti-angiogenic activity in Matrigel plug assay (hemoglobin concentration) [2]: significant anti-angiogenic activities
- blockage of VEGF-induced tube formation of HUVECs [3]: significant blockage
- inhibitory effect on VEGF-induced cell proliferation of HUVECs ([3H]thymidine incorporation) ([1]; 10 μM, FIG. 6): significant inhibitory effect
- inhibitory effect on VEGF-induced cell proliferation of HUVECs ([3H]thymidine incorporation) ([1]; 30 μM, FIG. 5): significant inhibitory effect

- melting point: 112 to 113 °C
Compound: CCOC(=O)c1ccc(-c2c3ccccc3nn2Cc2ccccc2)cc1 [Compound 28, Ethyl 4-(2-benzyl-2H-indazol-3-yl)benzoate]

- melting point: 118 to 120 °C
Compound: COC(=O)c1ccc(-c2nn(Cc3ccc(F)cc3)c3ccccc23)cc1 [Compound 29, Methyl 4-[1-(4-fluorobenzyl)-1H-indazol-3-yl]benzoate]

- melting point: 121 to 122 °C
Compound: COC(=O)c1ccc(-c2c3ccccc3nn2Cc2ccc(F)cc2)cc1 [Compound 30, Methyl 4-[2-(4-fluorobenzyl)-2H-indazol-3-yl]benzoate]

- melting point: 94 to 96 °C
Compound: CCOC(=O)c1ccc(-c2c3ccccc3nn2Cc2ccccc2F)cc1 [Compound 32, Ethyl 4-[2-(2-fluorobenzyl)-2H-indazol-3-yl]benzoate]

- melting point: 159 to 163 °C
Compound: O=C(O)c1ccc(-c2c3ccccc3nn2Cc2ccccc2)cc1 [Compound 35, 4-(2-Benzyl-2H-indazol-3-yl)benzoic acid]

- melting point: 237 to 239 °C
Compound: O=C(O)c1ccc(-c2c3ccccc3nn2Cc2ccc(F)cc2)cc1 [Compound 36, 4-[2-(4-Fluorobenzyl)-2H-indazol-3-yl]benzoic acid]

- melting point: 201 to 203 °C
Compound: O=C(NO)c1ccc(-c2c3ccccc3nn2Cc2ccccc2)cc1 [Compound 38, 4-(2-Benzyl-2H-indazol-3-yl)-N-hydroxybenzamide]

- melting point: 148 to 149 °C
Compound: OCc1ccc(-c2c3ccccc3nn2Cc2ccccc2)cc1 [Compound 39, [4-(2-Benzyl-2H-indazol-3-yl)phenyl]methanol]
